Results reported in ChEMBL document CHEMBL4251726, “ATR Inhibitors as Potential Treatment for Cancers” (ACS Med Chem Lett, 2018).
pIC50: −log10 of the molar value.

Legend:
ATR/ATRIP = ATR/ATRIP (Homo sapiens, UniProt Q13535); test: Inhibition of recombinant human full length ATR/ATRIP expressed in mammalian expression system using c-Myc-tagged p53 as substrate incubated for 15 mins followed by substrate addition measured after 25 to 35 mins by TR-FRET assay
[1] = biological target: T1, Serine/threonine-protein kinase ATR (Homo sapiens, UniProt Q13535); test: Inhibition of ATR in human HT29 cells assessed as reduction in Chk1 phosphorylation at Ser345 residues after 4 hrs by Alexa Fluor 488 staining based fluorescence assay; format: cell-based
T1 sequence (Q13535 whole entry, the tested form may be a part): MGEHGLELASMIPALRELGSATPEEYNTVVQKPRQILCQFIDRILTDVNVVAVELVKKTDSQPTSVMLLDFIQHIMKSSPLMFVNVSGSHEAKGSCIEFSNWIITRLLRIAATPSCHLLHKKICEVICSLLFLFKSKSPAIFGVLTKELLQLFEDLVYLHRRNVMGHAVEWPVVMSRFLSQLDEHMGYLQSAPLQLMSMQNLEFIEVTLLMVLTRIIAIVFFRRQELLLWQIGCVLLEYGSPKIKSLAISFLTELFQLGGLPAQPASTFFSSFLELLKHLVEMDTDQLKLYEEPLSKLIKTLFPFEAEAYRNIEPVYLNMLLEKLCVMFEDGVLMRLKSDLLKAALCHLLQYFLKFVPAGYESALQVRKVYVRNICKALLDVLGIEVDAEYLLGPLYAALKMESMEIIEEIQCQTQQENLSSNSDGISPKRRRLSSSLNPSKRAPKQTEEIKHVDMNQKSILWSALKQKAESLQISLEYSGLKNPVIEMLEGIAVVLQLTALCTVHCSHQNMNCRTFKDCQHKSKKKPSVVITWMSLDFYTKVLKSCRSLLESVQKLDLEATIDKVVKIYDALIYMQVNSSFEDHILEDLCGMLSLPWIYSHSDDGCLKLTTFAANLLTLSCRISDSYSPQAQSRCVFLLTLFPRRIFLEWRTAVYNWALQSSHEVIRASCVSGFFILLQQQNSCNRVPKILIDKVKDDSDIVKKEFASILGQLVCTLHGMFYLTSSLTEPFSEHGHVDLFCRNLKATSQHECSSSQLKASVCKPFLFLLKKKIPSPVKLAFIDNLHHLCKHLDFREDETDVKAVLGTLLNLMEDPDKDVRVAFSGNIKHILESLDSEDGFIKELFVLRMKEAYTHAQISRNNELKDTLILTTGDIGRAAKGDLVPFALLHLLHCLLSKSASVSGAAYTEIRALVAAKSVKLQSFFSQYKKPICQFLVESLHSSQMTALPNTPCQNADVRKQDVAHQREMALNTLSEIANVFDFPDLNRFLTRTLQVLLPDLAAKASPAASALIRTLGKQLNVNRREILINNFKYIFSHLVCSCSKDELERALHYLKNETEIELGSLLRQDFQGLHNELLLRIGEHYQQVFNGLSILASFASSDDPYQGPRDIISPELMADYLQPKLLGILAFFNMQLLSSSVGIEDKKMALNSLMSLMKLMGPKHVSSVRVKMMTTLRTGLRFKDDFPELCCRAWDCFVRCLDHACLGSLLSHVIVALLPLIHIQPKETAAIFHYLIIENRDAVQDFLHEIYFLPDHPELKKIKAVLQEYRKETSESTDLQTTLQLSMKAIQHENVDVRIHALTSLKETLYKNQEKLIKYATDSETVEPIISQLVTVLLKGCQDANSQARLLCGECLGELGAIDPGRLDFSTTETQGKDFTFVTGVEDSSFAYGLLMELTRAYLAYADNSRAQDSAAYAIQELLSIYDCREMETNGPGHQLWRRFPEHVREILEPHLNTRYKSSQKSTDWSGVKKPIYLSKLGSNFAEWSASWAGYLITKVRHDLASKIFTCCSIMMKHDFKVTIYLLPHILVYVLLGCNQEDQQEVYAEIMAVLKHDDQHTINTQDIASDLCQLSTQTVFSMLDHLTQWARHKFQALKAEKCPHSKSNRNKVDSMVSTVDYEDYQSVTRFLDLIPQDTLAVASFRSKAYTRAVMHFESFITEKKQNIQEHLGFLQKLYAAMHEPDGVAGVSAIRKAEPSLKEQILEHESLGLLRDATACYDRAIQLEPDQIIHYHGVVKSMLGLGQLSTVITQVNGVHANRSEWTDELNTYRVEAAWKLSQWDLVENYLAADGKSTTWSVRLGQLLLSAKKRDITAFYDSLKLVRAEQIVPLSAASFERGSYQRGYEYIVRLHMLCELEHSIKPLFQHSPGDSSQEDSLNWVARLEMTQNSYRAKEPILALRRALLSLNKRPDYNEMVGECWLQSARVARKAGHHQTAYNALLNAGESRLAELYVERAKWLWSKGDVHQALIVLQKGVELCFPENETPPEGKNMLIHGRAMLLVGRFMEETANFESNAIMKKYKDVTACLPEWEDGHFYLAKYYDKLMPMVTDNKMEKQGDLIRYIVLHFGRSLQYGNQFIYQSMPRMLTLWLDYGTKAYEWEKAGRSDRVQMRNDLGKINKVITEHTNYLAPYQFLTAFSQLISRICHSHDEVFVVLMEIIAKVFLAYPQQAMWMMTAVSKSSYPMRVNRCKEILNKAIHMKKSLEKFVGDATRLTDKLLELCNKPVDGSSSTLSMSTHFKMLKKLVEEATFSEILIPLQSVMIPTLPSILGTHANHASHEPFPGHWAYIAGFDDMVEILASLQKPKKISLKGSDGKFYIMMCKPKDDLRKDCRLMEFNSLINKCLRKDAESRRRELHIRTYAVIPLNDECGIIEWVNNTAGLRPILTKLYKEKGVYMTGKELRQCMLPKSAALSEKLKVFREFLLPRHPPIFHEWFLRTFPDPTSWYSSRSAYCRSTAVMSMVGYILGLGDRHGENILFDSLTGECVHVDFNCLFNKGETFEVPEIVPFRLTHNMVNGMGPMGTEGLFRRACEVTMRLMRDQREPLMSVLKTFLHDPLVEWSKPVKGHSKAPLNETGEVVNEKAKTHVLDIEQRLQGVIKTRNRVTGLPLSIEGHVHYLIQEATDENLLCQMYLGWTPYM

[2] = biological target: T1, Serine/threonine-protein kinase ATR; test: Inhibition of ATR in human U2OS cells harboring ER-LBD fused TopBPI activation domain (978 to 1286 residues) assessed as reduction in 4-OHT-mediated nuclear translocation of TopBPI fragment by measuring gammaH2AX level after 24 hrs by Alexa Fluor 488 staining based fluorescence assay; format: cell-based

Chain of ATR/ATRIP (Q13535 whole entry): as the sequence (Q13535 whole entry, the tested form may be a part) above
Chain of ATR/ATRIP (Q8WXE1 whole entry, further chain): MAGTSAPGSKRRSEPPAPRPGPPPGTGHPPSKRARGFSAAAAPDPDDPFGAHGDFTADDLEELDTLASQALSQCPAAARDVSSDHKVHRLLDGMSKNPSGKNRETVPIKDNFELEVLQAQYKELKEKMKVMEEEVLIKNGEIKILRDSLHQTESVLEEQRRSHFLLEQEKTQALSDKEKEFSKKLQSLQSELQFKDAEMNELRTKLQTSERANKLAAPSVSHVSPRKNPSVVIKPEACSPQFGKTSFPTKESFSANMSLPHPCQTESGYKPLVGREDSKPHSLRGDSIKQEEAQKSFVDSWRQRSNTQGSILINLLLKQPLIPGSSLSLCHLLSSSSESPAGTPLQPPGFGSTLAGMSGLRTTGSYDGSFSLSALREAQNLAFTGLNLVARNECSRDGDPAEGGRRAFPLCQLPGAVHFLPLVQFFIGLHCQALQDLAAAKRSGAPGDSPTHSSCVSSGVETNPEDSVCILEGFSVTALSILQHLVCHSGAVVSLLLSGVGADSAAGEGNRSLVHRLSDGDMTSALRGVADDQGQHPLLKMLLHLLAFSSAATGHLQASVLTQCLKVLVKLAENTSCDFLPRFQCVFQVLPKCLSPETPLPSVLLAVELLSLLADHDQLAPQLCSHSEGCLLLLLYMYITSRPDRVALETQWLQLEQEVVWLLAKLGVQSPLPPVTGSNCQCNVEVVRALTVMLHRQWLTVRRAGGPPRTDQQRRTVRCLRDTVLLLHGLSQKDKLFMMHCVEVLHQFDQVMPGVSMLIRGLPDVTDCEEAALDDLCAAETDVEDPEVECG

CCNc1cnc2[nH]ccc2c1-c1nc2c(c(C(C)(C)S(C)(=O)=O)n1)OC[C@@H]1COC[C@@H](C)N21
pIC50 (ATR/ATRIP): 8.00 to 9.00
pIC50 [1]: 7.00 to 8.00

CNc1nccn1-c1nc2c(c(C(C)(C)S(C)(=O)=O)n1)OC[C@@H]1COC[C@@H](C)N21
pIC50 (ATR/ATRIP): 7.00 to 8.00
pIC50 [2]: 6.00 to 7.00

CNc1cnc2[nH]ccc2c1-c1nc2c(c(C(C)(C)O)n1)OC[C@@H]1COC[C@@H](C)N21
pIC50 (ATR/ATRIP): > 9.00
pIC50 [1]: 7.00 to 8.00
pIC50 [2]: 7.00 to 8.00

CNc1cnc2[nH]ccc2c1-c1nc2c(c(C(C)(C)S(C)(=O)=O)n1)OC[C@@H]1COC[C@@H](C)N21
pIC50 (ATR/ATRIP): > 9.00
pIC50 [1]: > 8.00
pIC50 [2]: 7.00 to 8.00

C[C@@H]1COC[C@H]2COc3c(nc(N(C)c4ccn[nH]4)nc3C(C)(C)S(C)(=O)=O)N21
pIC50 (ATR/ATRIP): 7.00 to 8.00

CNc1nc2ccccc2n1-c1nc2c(c(C(C)(C)S(C)(=O)=O)n1)OC[C@@H]1COC[C@@H](C)N21
pIC50 (ATR/ATRIP): > 9.00
pIC50 [1]: > 8.00
pIC50 [2]: > 8.00
